Values of other authors, collected in patent publication US20090317451A1, “PRESSURE-SENSITIVE ADHESIVE FOR SKIN SURFACE AND/OR TRANSDERMAL SUBSTANCE DELIVERY” (priority 2008, published 2009).
Where a name gives a salt, the structure may show the parent alone.

details: solvent(s) in which soluble; Merck 12th edition or other reference

Row | Reported Solubility | Structure (SMILES)
1 | Alcohol | CC(C)(C)NCC(O)c1ccc(O)c(CO)c1 (centres unmarked) [Albuterol]
2 | Alcohol | CN(C/C=C/C#CC(C)(C)C)Cc1cccc2ccccc12 [Terbinafinehydrochloride]
3 | Alcohol | CC(C)Cc1ccc(C(C)C(=O)O)cc1 (centres unmarked) [Ibuprofen]
4 | Alcohol | CC[C@@H]1C(=O)OC[C@@H]1Cc1cncn1C [Pilocarpine]
5 | Alcohol | CC(CN1c2ccccc2Sc2ccccc21)N(C)C (centres unmarked) [Promethazine]
6 | Alcohol | C#C[C@]1(OC(C)=O)CC[C@H]2[C@@H]3CCC4=CC(=O)CC[C@@H]4[C@H]3CC[C@@]21C [Norethindrone acetate]
7 | Water, alcohol | Cc1ncc([N+](=O)[O-])n1CCO [Netronidazole]
8 | Alcohol | Cc1cc(C2CCCCC2)n(O)c(=O)c1 [Ciclopirox]
9 | Alcohol | CS(C)(=O)=O [MSM, dimethyl sulfone, dimethyl sulfone]
10 | Alcohol | CCOC(=O)c1ccc(N)cc1 [Benzocaine]
11 | Alcohol | CC12CCC(CC1=O)C2(C)C (centres unmarked) [Camphor]
12 | Alcohol | CC(=O)Oc1ccccc1C(=O)O [Aspirin, acetylsalicylic acid]
13 | Water | Nc1nc2c(ncn2CCC(CO)CO)c(=O)[nH]1 [Penciclovir]
14 | Alcohol | CC(=O)O[C@H]1C(=O)[C@@]2(C)[C@H]([C@H](OC(=O)c3ccccc3)[C@]3(O)C[C@H](OC(=O)[C@H](O)[C@@H](NC(=O)c4ccccc4)c4ccccc4)C(C)=C1C3(C)C)[C@]1(OC(C)=O)CO[C@@H]1C[C@@H]2O [Paclitaxel]
15 | Alcohol | CC(=O)N1CCN(c2ccc(OCC3COC(Cn4ccnc4)(c4ccc(Cl)cc4Cl)O3)cc2)CC1 (centres unmarked) [Ketoconazole]
16 | Alcohol | O=C(CCCN1CCC(O)(c2ccc(Cl)cc2)CC1)c1ccc(F)cc1 [Haloperidol]
17 | Alcohol | COc1cccc2c1C(=O)c1c(O)c3c(c(O)c1C2=O)C[C@@](O)(C(=O)CO)C[C@@H]3O[C@H]1C[C@H](N)[C@H](O)[C@H](C)O1 [Doxorubicin]
18 | Glycerol + | CC(C)Cn1cnc2c(N)nc3ccccc3c21 [Imiquimod]
19 | Alcohol | CC[C@H]1OC(=O)[C@H](C)[C@@H](O[C@H]2C[C@@](C)(OC)[C@@H](O)[C@H](C)O2)[C@H](C)[C@@H](O[C@@H]2O[C@H](C)C[C@H](N(C)C)[C@H]2O)[C@](C)(O)C[C@@H](C)C(=O)[C@H](C)[C@@H](O)[C@]1(C)O [Erythromycin hydrate]
20 | Alcohol | Oc1ccc(C2CNCCc3c2cc(O)c(O)c3Cl)cc1 (centres unmarked) [Fenoldopam]
21 | Alcohol | CC(=O)OCC(CCn1cnc2cnc(N)nc21)COC(C)=O [Famciclovir]
22 | Alcohol | COc1cc(/C=C/C(=O)CC(=O)/C=C/c2ccc(O)c(OC)c2)ccc1O [Curcumin]
23 | Alcohol | CC(=O)Nc1ccc(O)cc1 [Acetaminophen]
24 | Alcohol | Nc1nc2c(ncn2COCCO)c(=O)[nH]1 [Acyclovir]

same assay, conditions: solvent(s) in which soluble; Merck 12th edition or other reference; listed as Liquimod

Row | Reported Solubility | Structure (SMILES)
25 | Alcohol | CC(C)Cn1cnc2c(N)nc3ccccc3c21 [Imiquimod]

details: in glycerol; Merck 12th edition #886

Row | decomposition by moisture | Structure (SMILES)
26 | glycerol hinders the decomposition | CC(=O)Oc1ccccc1C(=O)O [Aspirin, acetylsalicylic acid]
